The source of these data is US20160215348A1, “GENE EXPRESSION BIOMARKERS AND THEIR USE FOR DIAGNOSTIC AND PROGNOSTIC APPLICATION IN PATIENTS POTENTIALLY IN NEED OF HDAC INHIBITOR TREATMENT” (4SC AG, priority 2013, published 2016).

Where only a bound is given, the exact number is not on record here.

Test [1] concerns ZFP64. Nature of the test: ZFP64 fold change in HepG2, whole blood and PBMCs of a healthy donor (FIG. 4d). It counts as cell-based, human. The conditions noted are these: HepG2, whole blood, PBMC; resminostat 5 μM (combination: + sorafenib 5 μM); vs DMSO control. The procedure:
For comparison reasons, the siRNA experiment (ZFP64 knockdown) on HepG2 cells is shown. The samples are compared to a DMSO control and the fold change is determined with the exception of the siRNA samples, which are compared to the resminostat sample.
(§1) To determine RNA expression levels of ZFP64 in different cancer cell lines and PBMC, the cell membranes were chemically disrupted with a buffer containing guanidine isothiocycanate, which lyses the cells and supports the binding of RNA to a silica membrane and RNA was extracted via a filter-based spin column.

Test [2] deals with ZFP64. Nature of the test: ZFP64 gene expression in diverse cancer cell lines (FIG. 4c). In kind it is cell-based. The conditions noted are these: 10 μM; 0, 2, 5 and 24 hours.
Description: as §1

The subject of another test is Histone H3. Nature of the test: Nuclear protein extraction and Western blot, HepG2 cells (nuclear loading control). It counts as cell-based, human. The settings on record: 5 μM, 24 h, vs 0.1% DMSO. The procedure: (§2) After isolating nuclear fractions, ZFP64 protein levels were detected by Western Blot analysis. Histone H3 serves as nuclear loading control.
(§3) 4 h upon seeding, HepG2 cells were treated with either 0.1% DMSO or 5 μM resminostat.
(§4) 24 h upon resminostat treatment, cells were washed once with PBS before scraping and harvesting in cold PBS and transferring the cells into pre-chilled 15 ml falcon tubes. […]
(§5) From each nuclear sample 4.4 μg protein (measured via BCA protein assay) were added to the same amount of Tricine buffer (supplemented with B-Mercaptoethanol), heated at 95° C. for 5 min and then placed on ice. […]
(§6) The next day, after washing four times with Washing Buffer, membranes were incubated for 1 h with the corresponding horseradish peroxidase-conjugated anti-rabbit IgG secondary antibody at a dilution of 1/50.000 and anti-Biotin at a dilution of 1/1.000 (diluted in 10 ml 1/10 diluted SuperBlock T20 Blocking Buffer). After washing four times with Washing Buffer, HRP signals were detected using enhanced chemoluminescence and exposed to X-ray films. Subsequently, the films were scanned using the Gel Doc 2000 and the corresponding signals were quantified with the “Quantity One” Software (BioRad).
Background: A western blot detects proteins with antibodies after separation by electrophoresis.

The subject of a further test is HDAC. The test is described as follows: Cellular HDAC enzyme activity in patients' whole blood (Boc-K(Ac)-AMC), inhibition vs pre-dose. It counts as in vivo, human. The settings on record: SAPHIRE. The procedure: Samples were obtained and gene expressions were determined with the methods as described herein below. Whole blood was incubated for 2 h at 37° C. with fluorescent HDAC substrate Boc-K(Ac)-AMC. After the lysis of erythrocytes remaining cells were stored at −80° C. HDAC activity was determined by fluorimetric analysis using a FLUOstar OPTIMA plate reader, where cells were incubated with a defined developer reagent (containing trypsin and lysis buffer) which leads to cell lysis and generation of a fluorophore from the deacetylated substrate. Finally inhibition of HDAC activity compared to pre-dose levels was calculated.
• Labelled 15 ml tubes (e.g. PP tubes, e.g. Falcon® tubes) • Labelled 2 ml tubes (e.g. PP tubes) • Erythrocyte Lysis buffer (Qiagen 79217) (stored at RT until use) • 40 mM Boc-K(Ac) AMC Stock in DMSO (Bachem: 1-1875) (stored at −80° C. until use)
• 1) Add 1 ml citrate blood into a 15 ml labelled tube. • 2) Add 5 μl 40 mM Boc-K(Ac) AMC to 1 ml citrate blood (final concentration: 200 μM Boc-K(Ac) AMC). • 3) Incubate for 2 h in an incubator (37° C.). • 4) Add 5 fold volume (5 ml) of 4° C. cold erythrocyte lysis buffer (EL buffer, Qiagen 79217). • 5) Mix briefly on a shaker. • 6) Incubate on ice for at least 15 min; mix two times in between on a plate shaker. • 7) Add 7 ml of 4° C. […]

Test [3] concerns ZFP64. The test is described as follows: Nuclear protein extraction and Western blot, HepG2 cells. The settings on record: 5 μM, 24 h, vs 0.1% DMSO. It counts as cell-based, human. The procedure:
as §2, §3, §4, §5, §6

On to `CN(C)Cc1ccc(S(=O)(=O)n2ccc(/C=C/C(=O)NO)c2)cc1` [resminostat, (E)-3-(1-(4-((dimethylamino)methyl)phenylsulfonyl)-1H-pyrrol-3-yl)-N-hydroxyacrylamide], for which the “Regulation of ZFP64, fold change (FIG. 4d)” value with ZFP64 [1] was “down-regulation”. For the same compound, in the test with ZFP64 [2], the “ZFP64 expression in several cancer cell lines (FIG. 4c)” value is given as “down-regulating effect”. Besides, the “Histone H3 levels (nuclear loading control)” value with Histone H3 was “essentially unaltered”. In the test on HDAC (2 h post-dose, both dose groups (600 mg, 800 mg), vs pre-dose), the “Inhibition of HDAC enzyme activity (median)” value is given as not above 93%. In addition, the “Inhibition of HDAC enzyme activity” value with HDAC (day 8, 800 mg dose group, wide range of individual values) was “up to 41%”. Also, the “ZFP64 nuclear protein levels (Western Blot)” value with ZFP64 [3] was “diminished”.
